Measurements: patent US20090208620A1, “Alimentary Compositions and Methods For Metabolic Modulation” (VDF FUTURECEUTICALS, INC., priority 2003, published 2009)
“And” between values parts separate entries of the source, which are not always exact repeats. Identical values can stand only once.

Assays:
Type in all cases: cell-based, mouse
activated AMPK = assay: Western immunoblot for activated (phospho-Thr172) AMPK in muscle cells; settings: for FOLD AMPK ACTIVATION (OVER CONTROL): cells treated 30 minutes at 37° C; for effect on AMPK activity (in words): no concentration stated
Description: (§1) The levels of Glut-4, activated AMPK and activated Akt were measured in mouse muscle cells C2C12 (from ATTC) and in primary culture of human skeletal muscle cells (Clonetics, Inc.) using Western immunoblotting. C2C12 cells were plated at 1.5×1-exp5 cells per mL/well (12-well plate) in standard cell culture medium (DMEM supplemented with 10% fetal bovine serum (FBS), 25 mM glucose, 20 mM Hepes, 4 mM glutamine and 2 mM sodium pyruvate. 48 hrs after the plating, medium was changed to differentiation medium (DMEM supplemented with 5 mM of glucose and 0.5% of FBS) for next 3-4 days to stimulate the formation of myotubes. Three hours before the treatment with selected agents, cells were washed with PBS and transferred to PBS supplemented with 5 mM of glucose.
(§2) Human skeletal muscle cells (HSKM) were cultured in SKBM-2 mediums provided by Clonetics. 48 hrs after cell plating, medium was changed to SKBM medium to stimulate differentiation of the cells to myotubes. When differentiated, the myotubes were transferred to PBS supplemented with 5 mM glucose for three hrs before the treatment.
(§3) Analysis of C2C12 cells for the level of activated AMPK, Akt and the level of GLUT-4 was performed in the same experimental system. The cells were treated for 30 minutes at 37° C. […] Subsequently, 20 μg per sample of sample protein was used for Western analysis using NuPage 10% Bis/Tris gels (Invitrogen). After exposure of membranes to primary and secondary antibodies AMPK, AKT or Glut-4 was detected using ECL-Plus (Amersham) following producer's instruction. Chemilumiscent signals were detected by using ChemiDoc system from Biorad. Intensity of detected signals were analyzed and measured using Quantity One software (Biorad). Alternatively, the level of phosphorylated AMPK was detected using ECL kit from Amersham and short exposure to Kodak films.
(§4) Experimental setup: Cell Culture was followed by treatment with selected contemplated compounds, which was followed by cell lysis and western blot analysis for AMPK, Akt, GLUT4, total AMPK, and total Akt. Signals were acquired accordingly.

activated Akt = assay: Western immunoblot for activated (phospho-Ser473) Akt in muscle cells; settings: for effect on Akt activity (in words): no concentration stated; for FOLD AKT ACTIVATION (OVER CONTROL): cells treated 30 minutes at 37° C
Description: as §1, §2, §3, §4

GLUT-4 = assay: Western immunoblot for GLUT-4 protein level in C2C12 cells
Description: as §1
Analysis of C2C12 cells for the level of activated AMPK, Akt and the level of GLUT-4 was performed in the same experimental system. The cells were treated for 30 minutes at 37° C. After the treatment, the cells were washed with ice-cold PBS and lysed with 80 μl of lysis buffer/well (M-PER buffer from Pierce supplemented with protease and phosphatase inhibitor mix (Calbiochem) for 10 minutes on ice. Next, the plates were transferred to −20° C. to improve the lysis of the cells. Next cells were sonicated for 5 minutes and lysate was transferred to Eppendorf tubes and centrifuged at 14,000 rpm for 10 minutes. Supernatants were collected in fresh Eppendorf tubes and kept on ice to measure the amount of total proteins. 3 μl of each lysate was used to measure the protein concentration using standard Bradford method (Biorad). Subsequently, 20 μg per sample of sample protein was used for Western analysis using NuPage 10% Bis/Tris gels (Invitrogen). After exposure of membranes to primary and secondary antibodies AMPK, AKT or Glut-4 was detected using ECL-Plus (Amersham) following producer's instruction. Chemilumiscent signals were detected by using ChemiDoc system from Biorad. Intensity of detected signals were analyzed and measured using Quantity One software (Biorad). Alternatively, the level of phosphorylated AMPK was detected using ECL kit from Amersham and short exposure to Kodak films.
Experimental setup: Cell Culture was followed by treatment with selected contemplated compounds, which was followed by cell lysis and western blot analysis for AMPK, Akt, GLUT4, total AMPK, and total Akt. Signals were acquired accordingly. Primary antibodies used in these studies are the following: Anti-phospho-AMPK (Thr172), mouse, rabbit IgG, from Cell Signaling, #2531; Anti-phospho-Akt (Ser473), mouse, rabbit IgG, Cell Signaling, #9271; Anti-Glut-4, mouse, rabbit IgG, Calbiochem, #400064; Anti-AMPK (total), mouse, rabbit IgG, Cell Signaling, #2532; Anti-Akt (total), mouse, rabbit IgG, Cell Signaling, #9272.
The effects of kinetin, N^2-Acetyl-Guanosine and N^2-Acetyl-Guanine on GLUT-4 protein level in C2C12 cells were investigated following the same experimental design as described for AMPK and AKT. Anti-Glut-4 antibody used in this study was from Calbiochem. […] Table 3 refers to multiple independent experiments where multiple identical concentrations for the same reagents are indicated.

`Nc1nc2c(ncn2[C@@H]2O[C@H](CO)[C@@H](O)[C@H]2O)c(=O)[nH]1` [Guanosine] was tested, and the “FOLD AMPK ACTIVATION (OVER CONTROL)” value (activated AMPK; 5.0 microM) was 3.70 fold, the “effect on AMPK activity (in words)” value (activated AMPK) was “potent activators of AMPK” and the “effect on Akt activity (in words)” value (activated Akt) was “potent activators of AMPK as well as Akt”.
For `NC(=O)c1ncn([C@@H]2O[C@H](CO)[C@@H](O)[C@H]2O)c1N` [AICAR, reference compound], the “FOLD AKT ACTIVATION (OVER CONTROL)” value (activated Akt; 50.0 microM) was 2.20 fold and the “FOLD AKT ACTIVATION (OVER CONTROL)” value (activated Akt; 500.0 microM) was 5.45 fold.
With `C/C(=C\CNc1ncnc2[nH]cnc12)CO` [Zeatin] the “FOLD AMPK ACTIVATION (OVER CONTROL)” value (activated AMPK; 1.0 microM) was 2.33 fold and 2.15 fold, the “FOLD AMPK ACTIVATION (OVER CONTROL)” value (activated AMPK; 10.0 microM) was 2.04 fold and the “effect on AMPK activity (in words)” value (activated AMPK) was “potent stimulator of AMPK”. The “FOLD AKT ACTIVATION (OVER CONTROL)” value (activated Akt; 1.0 microM) was 0.95 fold, the “FOLD AKT ACTIVATION (OVER CONTROL)” value (activated Akt; 10.0 microM) was 1.36 fold and the “effect on Akt activity (in words)” value (activated Akt) was “not Akt”.
`Nc1ncnc2c1ncn2[C@@H]1O[C@H](CO)[C@@H](O)[C@H]1O` [Adenosine] was tested, and the “FOLD AMPK ACTIVATION (OVER CONTROL)” value (activated AMPK; 2.5 microM) was 1.87 fold, the “FOLD AMPK ACTIVATION (OVER CONTROL)” value (activated AMPK; 5.0 microM) was 1.64 fold and the “FOLD AMPK ACTIVATION (OVER CONTROL)” value (activated AMPK; 12.5 microM) was 1.83 fold.
For `c1ccc(CNc2ncnc3nc[nH]c23)cc1` [Benzyl-Adenine], the “FOLD AMPK ACTIVATION (OVER CONTROL)” value (activated AMPK; 0.5 microM) was 2.18 fold, the “FOLD AMPK ACTIVATION (OVER CONTROL)” value (activated AMPK; 5.0 microM) was 2.70 fold and the “FOLD AMPK ACTIVATION (OVER CONTROL)” value (activated AMPK; 50.0 microM) was 2.92 fold.
`CN(CCOc1ccc(CC2SC(=O)NC2=O)cc1)c1ccccn1` (centres unmarked) [Rosiglitazone, reference compound] was tested, and the “FOLD AMPK ACTIVATION (OVER CONTROL)” value (activated AMPK; 3.0 microM) was 3.50 fold, the “FOLD AKT ACTIVATION (OVER CONTROL)” value (activated Akt; 1.0 microM) was 2.83 fold and the “FOLD AKT ACTIVATION (OVER CONTROL)” value (activated Akt; 9.0 microM) was 1.78 fold. For the same molecule, the “FOLD AKT ACTIVATION (OVER CONTROL)” value (activated Akt; 27.0 microM) was 0.71 fold, the “FOLD CHANGE IN GLUT-4 LEVEL (OVER CONTROL)” value (GLUT-4; 9.0 microM) was 3.61 fold and the “FOLD CHANGE IN GLUT-4 LEVEL (OVER CONTROL)” value (GLUT-4; 27.0 microM) was 3.19 fold.
With `CC(=O)Nc1ncnc2c1ncn2[C@@H]1O[C@H](CO)[C@@H](O)[C@H]1O` [N^6-Acetyl-Adenosine] the “FOLD AMPK ACTIVATION (OVER CONTROL)” value (activated AMPK; 2.5 microM) was 1.08 fold, the “FOLD AMPK ACTIVATION (OVER CONTROL)” value (activated AMPK; 5.0 microM) was 2.41 fold and the “FOLD AMPK ACTIVATION (OVER CONTROL)” value (activated AMPK; 12.5 microM) was 2.18 fold.
